Among the data in the METLIN SMRT retention time set (Domingo-Almenara et al. 2019) are RP-LC retention time values, retold here.

SMILES strings stand for the structures.

A short description of this data set: gradient 5% acetonitrile 3 min, to 50% in 2 min, to 85% in 15 min, held 3 min, 100 µL/min. Particulars: column: Zorbax Extend-C18 2.1 x 50 mm; eluents: water / acetonitrile, 0.1% formic acid. The gist of the method:
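Retention time was recorded from adduct peaks, which were picked computationally and each inspected manually. Pure standards ran in mixtures of ~100 molecules on HPLC coupled to a quadrupole time-of-flight mass spectrometer, in positive and negative ionization mode, through a Zorbax Extend-C18 column (2.1 × 50 mm, 1.8 μm) at 100 μL/min. Eluents were water and acetonitrile, each with 0.1% formic acid.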
With `CC(=O)N1CCN(c2nc3c(s2)CC(C(=O)N2CCCCC2)CC3)CC1` (stereo not drawn), the RP-LC retention time turned out to be 548 s.
As for `CN1CCN(S(=O)(=O)c2ccc(Cl)c3ccccc23)CC1`, the RP-LC retention time is 580 s.
To `CC1=C(c2ccccc2)S(=O)(=O)N=C1N1CCCN(C(=O)Nc2cccc(C)c2)CC1` belongs 709 s; to `Cc1ccccc1NC(=O)C1CC(=O)N(c2n[nH]c3cccc(F)c23)C1` (stereo not drawn), 733 s; to `CCCCN1C(=O)CN(S(=O)(=O)c2ccccc2)CC1(C)C(=O)NCc1ccc(C)cc1` (stereo not drawn), 805 s.
`CN(C)CC1CN(C(=O)c2ccc3c(c2)OCO3)CC12CCOCC2` (stereo not drawn) showed an RP-LC retention time of 562 s.
As for `Cc1cccc(-c2noc(Cn3ncn4nc(-c5ccc(Br)cc5)cc4c3=O)n2)c1`, the RP-LC retention time was found to be 1260 s.
Molecule `O=C(O)CCCNS(=O)(=O)c1ccc2ccccc2c1` registered an RP-LC retention time of 717 s.
Under `Cc1cccc(-c2nc3cnccn3c2NCCC(=O)N2CCCC2)c1` stands 650 s; under `CCC(C)N1CCN(C(=O)CCc2ccc3c(c2)CN(C(=O)C2CC2)CCO3)CC1` (stereo not drawn), 598 s; under `Cc1ccc(Cl)cc1NS(=O)(=O)c1ccc(-c2c(C)noc2C)cc1`, 1010 s.
To `Cc1ccc2c(Nc3ccc(Cl)cc3)c(C(=O)N3CCOCC3)cnc2n1` belongs 608 s; to `Cc1ccc(CNS(=O)(=O)c2cc(-c3nc(C(C)(C)C)cs3)cs2)cc1C`, 1350 s.
`CC(C)n1cnnc1CC1CN(C(=O)Nc2cc(F)cc(F)c2)C1` displayed an RP-LC retention time of 667 s.
Under `Cc1ccc(C)c(C(=O)Nc2cccn3c(C)nnc23)c1` stands 695 s; under `O=C(Cn1c(=O)oc2ccc(C(=O)N3CCCCC3)cc21)N1CCc2ccccc2C1`, 804 s; under `O=C(Cn1c(=O)oc2ccccc21)NCC1CCN(C(=O)c2ccccc2F)CC1`, 671 s.
Under `CS(=O)(=O)N1CCCC(C(=O)N(Cc2ccccc2)Cc2ccccc2)C1` (stereo not drawn) stands 886 s.
In turn, `Cc1ccnc(N2CCC(C(=O)NCc3ccco3)CC2)n1` displayed an RP-LC retention time of 624 s.
In turn, `CCN1CCN(CCCNC(=O)c2cc3sccc3n2C)CC1` gave an RP-LC retention time of 569 s.
To `Cc1ccc(Sc2nccnc2N2CCC(C(=O)NCc3ccccc3C)CC2)cc1` belongs 1150 s.
Under `Cc1cc(N2CCCC2)n2nc(-c3ccc(C(C)(C)C)cc3)nc2n1` stands 968 s; under `O=C(Nc1ccc2c(c1)OCCO2)c1cccc2c1CCN2C(=O)Nc1ccc(F)cc1`, 909 s; under `Cc1nn(-c2ccccc2)c2c1N(CC(=O)NCCC(C)C)C(=O)CS2`, 821 s.
In turn, `Cc1ccc(C(=O)NCc2ccc3c(c2)ncn3C)s1` registered an RP-LC retention time of 604 s.
Regarding `Cc1cc(Cl)ccc1NC(=O)C1CCCN1S(=O)(=O)c1cc2c(cc1C)NC(=O)C(C)O2` (stereo not drawn), the RP-LC retention time amounted to 914 s.
To `O=C(Nc1ccc2c(c1)OCO2)c1cn(-c2cc(N3CCCCC3)ncn2)cn1` belongs 936 s.
To `CN(C)c1nc2ncn3c(=O)n(CC(=O)Nc4cc(F)cc(F)c4)nc3c2s1` belongs 741 s; to `CCn1cc(CC(=O)NCc2ccc(F)cc2)c2cccnc21`, 708 s.
`Cc1cc2nn(CC(=O)NCc3ccc(F)cc3)c(=O)n2c(-c2ccccc2)n1` gave an RP-LC retention time of 744 s.
Under `O=C(Nc1ccc2c(c1)OCCO2)Nc1ccc2nc3n(c(=O)c2c1)CCC3` stands 654 s; under `O=C(NCCCN1CCc2ccccc2C1)c1nnc(-c2ccc(S(=O)(=O)N3CCCC3)cc2)o1`, 680 s; under `CN(CC(=O)N1CCN(c2ccccc2F)CC1)S(=O)(=O)c1ccc2c(c1)CCCC(=O)N2`, 768 s.
